In assay [1] the test system is healthy adults. The note with it: vs placebo; compositive level; single beverage dose.
Assay [2] deals with healthy adults. As to conditions: p-value vs placebo; compositive level; single beverage dose; b330.

This is an account of results in US20260240203A1, “COMPOSITIONS CONTAINING GAMMA-AMINOBUTYRIC ACID AND METHODS FOR IMPROVING COGNITIVE FUNCTIONS, MOOD, AND ALERTNESS” (THE COCA-COLA COMPANY, priority 2023, published 2026).

On to `Cn1c(=O)c2c(ncn2C)n(C)c1=O` [Caffeine, caffeine], for which the accuracy of performance entry in the assay on healthy adults [1] is recorded as “numerically trends to improve the accuracy of performance, although no significance observed”. The “improve the speed of performance significantly comparing to placebo (p), as printed in the attention paragraph” value with healthy adults [2] stood at 0.002.
